Like-named read-outs stand apart in the source and are kept apart here.

The experiment has as its target T1, nvTRPM2 (transient receptor potential melastatin 2) (Nematostella vectensis, UniProt A7T1N0).
T1 construct: gene TRPM2; purified and reconstituted into planar lipid bilayers
Kind of experiment: single-channel recording of purified channel in planar lipid bilayers (activation). It counts as biochemical.

T1 sequence (A7T1N0 whole entry): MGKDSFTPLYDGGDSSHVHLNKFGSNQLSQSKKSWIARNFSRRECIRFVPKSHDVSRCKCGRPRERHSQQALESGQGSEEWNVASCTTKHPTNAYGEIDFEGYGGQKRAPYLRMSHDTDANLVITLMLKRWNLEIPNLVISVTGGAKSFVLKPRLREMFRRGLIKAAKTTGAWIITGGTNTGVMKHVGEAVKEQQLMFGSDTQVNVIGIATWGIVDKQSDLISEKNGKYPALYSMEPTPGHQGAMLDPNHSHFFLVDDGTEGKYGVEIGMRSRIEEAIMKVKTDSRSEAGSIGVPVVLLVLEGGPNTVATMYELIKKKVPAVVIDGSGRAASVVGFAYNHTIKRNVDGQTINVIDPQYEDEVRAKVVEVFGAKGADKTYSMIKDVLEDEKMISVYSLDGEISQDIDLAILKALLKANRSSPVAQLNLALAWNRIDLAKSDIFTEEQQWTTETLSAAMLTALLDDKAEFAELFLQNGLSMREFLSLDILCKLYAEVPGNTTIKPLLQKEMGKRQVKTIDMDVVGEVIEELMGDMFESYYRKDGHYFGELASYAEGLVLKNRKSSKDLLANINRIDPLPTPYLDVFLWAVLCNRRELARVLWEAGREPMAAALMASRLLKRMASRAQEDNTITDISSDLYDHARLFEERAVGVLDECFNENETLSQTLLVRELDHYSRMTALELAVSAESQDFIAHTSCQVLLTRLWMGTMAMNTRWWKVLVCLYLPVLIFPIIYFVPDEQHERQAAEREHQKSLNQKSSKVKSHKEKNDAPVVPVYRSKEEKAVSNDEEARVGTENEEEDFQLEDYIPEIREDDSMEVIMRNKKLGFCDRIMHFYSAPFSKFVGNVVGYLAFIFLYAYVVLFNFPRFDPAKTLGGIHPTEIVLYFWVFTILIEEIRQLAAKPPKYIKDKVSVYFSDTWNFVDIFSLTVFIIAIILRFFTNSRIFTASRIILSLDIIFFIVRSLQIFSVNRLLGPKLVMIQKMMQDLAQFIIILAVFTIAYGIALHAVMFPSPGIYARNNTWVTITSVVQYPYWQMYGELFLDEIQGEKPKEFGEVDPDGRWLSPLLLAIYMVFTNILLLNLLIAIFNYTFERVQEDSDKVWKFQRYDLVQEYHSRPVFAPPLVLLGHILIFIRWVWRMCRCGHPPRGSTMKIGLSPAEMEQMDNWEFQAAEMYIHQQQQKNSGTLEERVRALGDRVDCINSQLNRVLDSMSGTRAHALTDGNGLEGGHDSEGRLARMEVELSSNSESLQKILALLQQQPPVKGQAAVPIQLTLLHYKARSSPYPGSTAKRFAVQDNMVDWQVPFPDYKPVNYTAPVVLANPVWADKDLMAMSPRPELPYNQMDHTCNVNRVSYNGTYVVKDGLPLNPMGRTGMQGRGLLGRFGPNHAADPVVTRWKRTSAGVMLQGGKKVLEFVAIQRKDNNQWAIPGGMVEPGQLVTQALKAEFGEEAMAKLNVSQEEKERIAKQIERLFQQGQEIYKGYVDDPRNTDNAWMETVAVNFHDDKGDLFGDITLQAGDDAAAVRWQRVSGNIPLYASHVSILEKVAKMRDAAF

As for `Nc1ncnc2c1ncn2[C@@H]1O[C@H](COP(=O)(O)OP(=O)(O)OC[C@H]2OC(O)[C@H](O)[C@@H]2O)[C@@H](O)[C@H]1O` (some centres unmarked) [ADPR], under “read-out: EC50”, the concentration giving a half-maximal response (EC50) (commonly the concentration giving half of the maximal effect) was around 1000 nM. As for `Nc1ncnc2c1ncn2[C@@H]1O[C@H](COP(=O)(O)OP(=O)(O)OC[C@H]2OC(O)[C@H](O)[C@@H]2O)[C@@H](O)[C@H]1OP(=O)(O)O` (some centres unmarked) [ADPRP], the EC50 is around 200 nM.

These data come from article PMC10349829, “Functional characterization of the transient receptor potential melastatin 2 (TRPM2) cation channel from Nematostella vectensis reconstituted into lipid bilayer” (Scientific Reports, 2023).
